For assay [1], the system named is MCF-7 breast tumour cell line. The experiment in a line: Tumor cell proliferation assay (CellTiter-Glo), MCF-7. It is filed as cell-based. The note with it: Homo sapiens, MCF7, 72 h drug exposure, read-out: MCF-7 median IC50. In general terms: ATP-based viability assays read luminescence as a measure of living cells.
Assay [2] relates to KPL-4 breast cancer cell line. The experiment in a line: Tumor cell proliferation assay (CellTiter-Glo), KPL-4. Particulars: Homo sapiens, KPL4, 72 h drug exposure, read-out: KLP-4 median IC50. Type of assay: cell-based.
Method: Biological Assay 4.0: Tumor Cell Proliferation Assays
Compounds were tested in a cell-based assay that measures the capacity of the compounds to inhibit tumour cell proliferation following a 72 h drug exposure. Cell viability is determined using CellTiter-Glow® (CTG, Promega, cat#G7571/2/3). The CellTiter-Glo® Luminescent Cell Viability Assay is a homogeneous method to determine the number of viable cells in culture.
Detection is based on using the luciferase reaction to measure the amount of ATP from viable cells. The amount of ATP in cells correlates with cell viability. Within minutes after a loss of membrane integrity, cells lose the ability to synthesize ATP, and endogenous ATPases destroy any remaining ATP; thus the levels of ATP fall precipitously.
For each cell line assayed, cells were plated onto a separate plate for determination of fluorescence at t=0 hour and t=72 hour time points. Following overnight incubation at 37° C., chemiluminescence values for the t=0 samples were determined after adding 10 μl medium and 100 μl CTG solution according to manufacture protocol. Plates for the t=72 hour time points were treated with compounds diluted into growth medium at ten times final concentration added in 10 μL to the cell culture plate. Cells were then incubated for 72 hours at 37° C. Chemiluminescence values for the t=72 hour samples were determined. […] Experiments were controlled using a reference compound as standard.
The subject of a further assay is p-4E-BP1 at T70. Put plainly: Cellular p-4E-BP1-T70 assay in KPL-4 cells. Particulars: Homo sapiens, KPL4; KPL-4 breast tumour cell line, compound treatment 2 hours; read-out: P4EBP1-T70 median IC50. Type of assay: cell-based.
The next assay concerns phospho-AKT at S473. The experiment in a line: Cellular p-AKT1/2/3-S473 assay in KPL-4 cells. It is filed as cell-based. Particulars: Homo sapiens, KPL4; KPL-4 breast tumour cell line, compound treatment 2 hours; read-out: pAKT-S473 median IC50.
The target in assay [3] is His-tagged human recombinant kinase full-length Akt1 (Homo sapiens (Human), UniProt P31749). The experiment in a line: Akt1 kinase assay (Akt1 TR-FRET assay). Type of assay: biochemical. The note with it: 10 μM ATP, 60 min at 22° C., read-out: Akt1 median IC50. In general terms: Time-resolved FRET reads energy transfer from a long-lived donor to a nearby acceptor.

SMILES strings stand for the structures. Counter-ions that a name gives are not always drawn.

His-tagged human recombinant kinase full-length Akt1, sequence (P31749 whole entry): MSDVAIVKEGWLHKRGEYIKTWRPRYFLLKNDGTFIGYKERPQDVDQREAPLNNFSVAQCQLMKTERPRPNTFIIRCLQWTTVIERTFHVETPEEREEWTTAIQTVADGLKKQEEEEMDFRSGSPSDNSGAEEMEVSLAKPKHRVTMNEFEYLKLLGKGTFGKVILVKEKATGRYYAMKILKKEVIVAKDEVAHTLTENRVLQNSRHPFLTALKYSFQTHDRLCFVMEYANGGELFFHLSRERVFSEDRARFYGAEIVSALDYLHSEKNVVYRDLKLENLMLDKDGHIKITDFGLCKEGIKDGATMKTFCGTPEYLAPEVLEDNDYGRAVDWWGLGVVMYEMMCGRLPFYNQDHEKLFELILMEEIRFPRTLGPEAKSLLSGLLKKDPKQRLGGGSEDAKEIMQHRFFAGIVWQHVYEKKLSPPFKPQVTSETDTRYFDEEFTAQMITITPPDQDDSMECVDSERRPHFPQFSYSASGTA
Method for p-4E-BP1 at T70: The molecular mechanism of action was investigated in a set of experiments to assess the inhibition of the PI3K-AKT-mTOR pathway in responsive cell lines such as KPL-4 breast tumour cell line (PIK3CA^H1047R, HER2^O/E and hormone independent). The phospho-substrates of PI3K-AKT-mTOR axis were used as the read-outs to reflect pathway inhibition. Cells were seeded at 60-80% confluency per well in 96-well cell culture plates. After overnight incubation at 37° C. 5% CO2, cells were treated with compounds and vehicle at 37° C. for 2 hours. […] All measurements where at least done in duplicates and confirmed by independent repetition.

By IC50 is commonly meant the concentration that inhibits the measured activity by half. For the compound `NC1(c2ccc(-c3nc4ccc(C(F)(F)F)nn4c3-c3ccccc3)cc2)CCC1` [Example 3, 1-{4-[3-Phenyl-6-(trifluoromethyl)imidazo[1,2-b]pyridazin-2-yl]phenyl}-cyclobutanamine], the IC50 in assay [1] is 1800 nM; in assay [2], 1700 nM; in the assay on p-4E-BP1 at T70 it was 4500 nM; with phospho-AKT at S473 it was 360 nM.
For `COC(=O)c1cc(OC)c2nc(-c3ccc(C4(N)CCC4)cc3)c(-c3ccccc3)n2n1` [Example 12, Methyl 2-[4-(1-aminocyclobutyl)phenyl]-8-methoxy-3-phenylimidazo[1,2-b]pyridazine-6-carboxylate], the IC50 in assay [3] stood at 21 nM; in assay [1], 1800 nM; in assay [2], 2000 nM; with p-4E-BP1 at T70, 260 nM; in the assay on phospho-AKT at S473 it was 52 nM.
As for `COc1cc(-c2cn[nH]c2)c2nc(-c3ccc(C4(N)CCC4)cc3)c(-c3ccccc3)n2n1` [Example 15, 1-{4-[6-Methoxy-3-phenyl-8-(1H-pyrazol-4-yl)imidazo[1,2-b]pyridazin-2-yl]phenyl} cyclobutanamine HCl salt], the IC50 in assay [3] came out at 4.4 nM; in assay [1], 1800 nM; in assay [2], 1800 nM; with p-4E-BP1 at T70 it was 1700 nM; with phospho-AKT at S473, 590 nM.
As to `CCOc1cc(C(=O)NC)nn2c(-c3ccccc3)c(-c3ccc(C4(N)CCC4)cc3)nc12` [Example 22, 2-[4-(1-Aminocyclobutyl)phenyl]-8-ethoxy-N-methyl-3-phenylimidazo[1,2-b]pyridazine-6-carboxamide], the IC50 was determined as 8 nM in assay [3]; 240 nM in assay [1]; 190 nM in assay [2]; 23 nM in the assay on p-4E-BP1 at T70; 0.3 nM with phospho-AKT at S473.
As for `NC1(c2ccc(-c3nc4c(-c5ncc[nH]5)cc(Cl)nn4c3-c3ccccc3)cc2)CCC1` [Example 24, 1-{4-[6-Chloro-8-(1H-imidazol-2-yl)-3-phenyl-imidazo[1,2-b]pyridazin-2-yl]phenyl} cyclobutanamine], the IC50 amounted to 35 nM in assay [3]; 1800 nM in assay [1]; 1700 nM in assay [2]; 500 nM with p-4E-BP1 at T70; 200 nM in the assay on phospho-AKT at S473.
With `COCCOc1cc(C(N)=O)nn2c(-c3ccccc3)c(-c3ccc(C4(N)CCC4)cc3)nc12` [Example 28, 2-[4-(1-Aminocyclobutyl)phenyl]-8-(2-methoxy-ethoxy)-3-phenylimidazo[1,2-b]pyridazine-6-carboxamide], the IC50 in assay [1] was 1800 nM; in assay [2], 1900 nM; in the assay on p-4E-BP1 at T70, 6.2 nM; in the assay with phospho-AKT at S473, 1 nM.
On to `NC1(c2ccc(-c3nc4c(O)ccnn4c3-c3ccccc3)cc2)CCC1` [Example 32, 2-[4-(1-Aminocyclobutyl)phenyl]-3-phenylimidazo[1,2-b]pyridazin-8-ol], for which the IC50 in the assay on p-4E-BP1 at T70 came to 2200 nM; in the assay on phospho-AKT at S473 it was 160 nM.
`NC1(c2ccc(-c3nc4ccc(-c5ccc(F)cc5)nn4c3-c3ccccc3)cc2)CCC1` [Example 33, 1-{4-[6-(4-Fluorophenyl)-3-phenylimidazo[1,2-b]pyridazin-2-yl]phenyl}cyclobutanamine]: the IC50 in assay [3] was determined as 690 nM; with phospho-AKT at S473 it was 2900 nM.
For the compound `CSc1ccc2nc(-c3ccc(C4(N)CCC4)cc3)c(-c3ccccc3)n2n1` [Example 36, 1-{4-[6-(Methylsulfanyl)-3-phenylimidazo[1,2-b]pyridazin-2-yl]phenyl}cyclobutanamine], the IC50 in assay [3] was determined as 17 nM; in assay [1] it was 1700 nM; in assay [2] it was 1800 nM; in the assay on p-4E-BP1 at T70, 1600 nM; with phospho-AKT at S473, 26 nM.
The corresponding values for `CS(=O)(=O)c1ccc2nc(-c3ccc(C4(N)CCC4)cc3)c(-c3ccccc3)n2n1` [Example 38] are 370 nM, 510 nM, 740 nM, 530 nM and 20 nM.
With `NC1(c2ccc(-c3nc4ccc(NC(=O)C(F)(F)F)nn4c3-c3ccccc3)cc2)CCC1` [Example 40, N-{2-[4-(1-Aminocyclobutyl)phenyl]-3-phenylimidazo[1,2-b]pyridazin-6-yl}-2,2,2-trifluoroacetamide], the IC50 is 8400 nM in assay [1], greater than 10000 nM in assay [2], 6100 nM with p-4E-BP1 at T70 and 2000 nM in the assay with phospho-AKT at S473.
As for `CC(=O)c1ccc2nc(-c3ccc(C4(N)CCC4)cc3)c(-c3ccccc3)n2n1` [Example 43, 1-{2-[4-(1-Aminocyclobutyl)phenyl]-3-phenylimidazo[1,2-b]pyridazin-6-yl}ethanone], the IC50 stood at 36 nM in assay [3]; 6700 nM in assay [1]; 6200 nM in assay [2]; 1600 nM in the assay with p-4E-BP1 at T70; 96 nM with phospho-AKT at S473.
The corresponding values for `CCCc1ccnn2c(-c3ccccc3)c(-c3ccc(C4(N)CCC4)cc3)nc12` [Example 47, 1-[4-(3-Phenyl-8-propylimidazo[1,2-b]pyridazin-2-yl)phenyl]cyclobutanamine] are 220 nM, 1100 nM, 1700 nM, 96 nM and 140 nM.
As for `CCOc1nn2c(-c3ccccc3)c(-c3ccc(C4(N)CCC4)cc3)nc2c(C)c1C` [Example 55, 1-[4-(6-Ethoxy-7,8-dimethyl-3-phenylimidazo[1,2-b]pyridazin-2-yl)phenyl]-cyclobutanamine], the IC50 is 1900 nM in assay [1], 2000 nM in assay [2], 1800 nM in the assay on p-4E-BP1 at T70 and 680 nM in the assay on phospho-AKT at S473.
Turning to `NC(=O)c1ccnn2c(-c3ccccc3)c(-c3ccc(C4(N)CCC4)cc3)nc12` [Example 59], the IC50 turned out to be 100 nM with p-4E-BP1 at T70 and 11 nM in the assay with phospho-AKT at S473.
Turning to `NC(=O)c1cc(-c2cc[nH]n2)c2nc(-c3ccc(C4(N)CCC4)cc3)c(-c3ccccc3)n2n1` [Example 60, 2-[4-(1-Aminocyclobutyl)phenyl]-3-phenyl-8-(1H-pyrazol-3-yl)imidazo[1,2-b]pyridazine-6-carboxamide], the IC50 was 7.2 nM in assay [3]; 73 nM in assay [1]; 1500 nM in assay [2]; 8100 nM with p-4E-BP1 at T70; 1 nM with phospho-AKT at S473.
With `CCNC(=O)c1ccc2nc(-c3ccc(C4(N)CCC4)cc3)c(-c3ccccc3)n2n1` [Example 66, 2-[4-(1-Aminocyclobutyl)phenyl]-N-ethyl-3-phenylimidazo[1,2-b]pyridazine-6-carboxamide], the IC50 was determined as 980 nM in assay [1], 2500 nM in assay [2] and 17 nM in the assay with phospho-AKT at S473.
On to `CN(C)C(=O)c1ccc2nc(-c3ccc(C4(N)CCC4)cc3)c(-c3ccccc3)n2n1` [Example 69, 2-[4-(1-Aminocyclobutyl)phenyl]-N,N-dimethyl-3-phenylimidazo[1,2-b]pyridazine-6-carboxamide], for which the IC50 was 310 nM in assay [3]; 1500 nM in assay [1]; 10000 nM in assay [2]; 4400 nM with p-4E-BP1 at T70; 250 nM in the assay with phospho-AKT at S473.
Take `COc1cc(-c2ccnn2C)c2nc(-c3ccc(C4(N)CCC4)cc3)c(-c3ccccc3)n2n1` [Example 74, 1-{4-[6-Methoxy-8-(1-methyl-1H-pyrazol-5-yl)-3-phenylimidazo[1,2-b]pyridazin-2-yl]phenyl}cyclobutanamine]: the IC50 turned out to be 96 nM in assay [3], 2000 nM in assay [1], 2100 nM in assay [2] and 450 nM in the assay on phospho-AKT at S473.

These data come from patent US9604989B2, “Imidazopyridazines as Akt kinase inhibitors” (Bayer Intellectual Property GmbH, priority 2011, dated 2017).
